Laboratory results from ChEMBL document CHEMBL6109102, “Conjugation with the XJB peptide enhanced neuroprotective effect of honokiol via SIRT3 modulation” (Eur J Med Chem, 2025).
The source made the active and inactive calls. The calls are words filed in the database; no cut-off is given here.

Legend:
PC-12 [1] = assay: Neuroprotective activity in H2O2-induced rat PC12 cells assessed as suppression of Mfn-1 expression in presence of 3-TYP by Western blot analysis; format: functional, cell-based
PC-12 [2] = assay: Neuroprotective activity in H2O2-induced rat PC12 cells assessed as reversal of mitochondrial membrane potential reduction by measuring green fluorescence fold change at 5 uM incubated with compound for 24 hrs followed by H2O2 addition and measured after 24 hrs by JC-1 based fluorescence microscopic analysis (reference value: 1.00); format: functional
PC-12 [3] = assay: Neuroprotective activity in H2O2-induced rat PC12 cells assessed as reversal of mitochondrial membrane potential reduction by measuring green fluorescence at 2.5 uM incubated with compound for 24 hrs followed by H2O2 addition and measured after 24 hrs by JC-1 based fluorescence microscopic analysis (reference value: 4.90 a.u.); format: functional
PC-12 [4] = assay: Induction of autophagy in H2O2-induced rat PC12 cells assessed as downregulation of P62 expression by Western blot analysis; format: functional, cell-based; conditions: dose 1.25-5 µM
PC-12 [5] = assay: Neuroprotective activity against H2O2-induced cell injury in rat PC12 cells assessed as cell viability at 2 uM incubated for 24 hrs by MTT assay; format: functional, cell-based
PC-12 [6] = assay: Neuroprotective activity against H2O2-induced cell injury in rat PC12 cells assessed as cell viability incubated for 24 hrs by MTT assay; format: functional, cell-based; conditions: dose 0.37-30 µM
PC-12 [7] = assay: Neuroprotective activity in H2O2-induced rat PC12 cells assessed as reversal of mitochondrial membrane potential reduction by measuring red fluorescence at 5 uM incubated with compound for 24 hrs followed by H2O2 addition and measured after 24 hrs by JC-1 based fluorescence microscopic analysis (reference value: 21.62 a.u.); format: functional
PC-12 [8] = assay: Neuroprotective activity in H2O2-induced rat PC12 cells assessed as reversal of mitochondrial membrane potential reduction by measuring red fluorescence at 1.25 uM incubated with compound for 24 hrs followed by H2O2 addition and measured after 24 hrs by JC-1 based fluorescence microscopic analysis (reference value: 21.62 a.u.); format: functional
SH-SY5Y = assay: Cytotoxicity against human SH-SY5Y cells assessed as inhibition of cell viability at 100 uM incubated for 24 hrs by MTT assay; format: functional, cell-based
PC-12 [9] = assay: Neuroprotective activity in H2O2-induced rat PC12 cells assessed as reversal of mitochondrial membrane potential reduction by measuring green fluorescence fold change at 2.5 uM incubated with compound for 24 hrs followed by H2O2 addition and measured after 24 hrs by JC-1 based fluorescence microscopic analysis (reference value: 1.00); format: functional
PC-12 [10] = assay: Neuroprotective activity in H2O2-induced rat PC12 cells assessed as upregulation of Mfn-1 expression at 1.25 to 5 uM by Western blot analysis; format: functional, cell-based; conditions: dose 1.25-5 µM
PC-12 [11] = assay: Neuroprotective activity in H2O2-induced rat PC12 cells assessed as upregulation of p-AMPK/AMPK ratio at 1.25 to 5 uM by Western blot analysis; format: functional, cell-based; conditions: dose 1.25-5 µM
PC-12 [12] = assay: Neuroprotective activity in H2O2-induced rat PC12 cells assessed as reduction in cell viability in presence of 3-TYP at 10 uM; format: functional, cell-based
[13] = Drug uptake in cytoplasm of rat PC12 cells at 8 uM incubated for 8.5 hrs by HPLC analysis; format: ADME, subcellular; conditions: pc12, 8.5 h
[14] = Drug uptake in mitochondria of rat PC12 cells at 8 uM incubated for 8.5 hrs by HPLC analysis; format: ADME; conditions: pc12, 8.5 h
[15] = Drug uptake in rat PC12 cells at 8 uM incubated for 8.5 hrs by HPLC analysis; format: ADME, cell-based; conditions: pc-12, 8.5 h
PC-12 [16] = assay: Neuroprotective activity in H2O2-induced rat PC12 cells assessed as reversal of mitochondrial membrane potential reduction by measuring red fluorescence fold change at […] incubated with compound for 24 hrs followed by H2O2 addition and measured after 24 hrs by JC-1 based fluorescence microscopic analysis (reference value: 1.00); format: functional
PC-12 [17] = assay: Neuroprotective activity in H2O2-induced rat PC12 cells assessed as upregulation of SIRT-3 level at 1.25 to 5 uM by Western blot analysis; format: functional, cell-based; conditions: dose 1.25-5 µM
PC-12 [18] = assay: Neuroprotective activity in H2O2-induced rat PC12 cells assessed as reversal of mitochondrial membrane potential reduction by measuring green fluorescence at 1.5 uM incubated with compound for 24 hrs followed by H2O2 addition and measured after 24 hrs by JC-1 based fluorescence microscopic analysis (reference value: 4.90 a.u.); format: functional
PC-12 [19] = assay: Induction of autophagy in H2O2-induced rat PC12 cells assessed as upregulation of LC3-II/I ratio by Western blot analysis; format: functional, cell-based; conditions: dose 1.25-5 µM
PC-12 [20] = assay: Neuroprotective activity in H2O2-induced rat PC12 cells assessed as reversal of mitochondrial membrane potential reduction by measuring red fluorescence fold change at 5 uM incubated with compound for 24 hrs followed by H2O2 addition and measured after 24 hrs by JC-1 based fluorescence microscopic analysis (reference value: 1.00); format: functional
PC-12 [21] = assay: Neuroprotective activity in H2O2-induced rat PC12 cells assessed as reversal of mitochondrial membrane potential reduction by measuring red fluorescence at 2.5 uM incubated with compound for 24 hrs followed by H2O2 addition and measured after 24 hrs by JC-1 based fluorescence microscopic analysis (reference value: 21.62 a.u.); format: functional
PC-12 [22] = assay: Neuroprotective activity in H2O2-induced rat PC12 cells assessed as reversal of mitochondrial membrane potential reduction by measuring green fluorescence at 5 uM incubated with compound for 24 hrs followed by H2O2 addition and measured after 24 hrs by JC-1 based fluorescence microscopic analysis (reference value: 4.90 a.u.); format: functional
PC-12 [23] = assay: Induction of autophagy in rat PC12 cells assessed as reduction of LC3-II/I ratio in presence of 3-TYP by Western blot analysis; format: functional, cell-based
PC-12 [24] = assay: Neuroprotective activity in H2O2-induced rat PC12 cells assessed as reversal of mitochondrial membrane potential reduction by measuring red fluorescence fold change at 2.5 uM incubated with compound for 24 hrs followed by H2O2 addition and measured after 24 hrs by JC-1 based fluorescence microscopic analysis (reference value: 1.00); format: functional
PC-12 [25] = assay: Neuroprotective activity in H2O2-induced rat PC12 cells assessed as reversal of mitochondrial membrane potential reduction by measuring green fluorescence fold change at 1.5 uM incubated with compound for 24 hrs followed by H2O2 addition and measured after 24 hrs by JC-1 based fluorescence microscopic analysis (reference value: 1.00); format: functional

## C=CCc1ccc(O)c(-c2ccc(OCCCNC(=O)[C@H](CCCNC(=O)OCc3ccccc3)NC(=O)[C@@H](NC(=O)[C@@H]3CCCN3C(=O)[C@@H](Cc3ccccc3)NC(=O)[C@H](CC(C)C)NC(=O)OC(C)(C)C)C(C)C)c(CC=C)c2)c1
PC-12 [1]
  Activity: Active
PC-12 [2]
  fold change (FC): 1.44
PC-12 [3]
  Activity: 7.17 a.u.
PC-12 [4]
  Activity: Dose-dependent-effect
PC-12 [5]
  Activity: Active
PC-12 [6]
  Activity: Dose-dependent-effect
PC-12 [7]
  Activity: 15.68 a.u.
PC-12 [8]
  Activity: 3.18 a.u.
SH-SY5Y
  Activity: inactive
PC-12 [9]
  fold change (FC): 2.91
PC-12 [10]
  Activity: Active
PC-12 [11]
  Activity: Active
PC-12 [12]
  Activity: Active
[13]
  Drug uptake: Active
[14]
  Drug uptake: Active
[15]
  Drug uptake: Active
PC-12 [16]
  fold change (FC): 0.14
PC-12 [17]
  Activity: Active
PC-12 [18]
  Activity: 3.7 a.u.
PC-12 [19]
  Activity: Dose-dependent-effect
PC-12 [20]
  fold change (FC): 0.74
PC-12 [21]
  Activity: 11.01 a.u.
PC-12 [22]
  Activity: 4.76 a.u.
PC-12 [23]
  Activity: Active
PC-12 [24]
  fold change (FC): 0.52
PC-12 [25]
  fold change (FC): 1.4
